“Also recorded” adds a separate entry of the source. Read-outs that look alike come from different tables or passages of the source.
Legend:
[1] = test system: PDE peak B (novel cGMP-specific PDE) from SW-480 cells; assay: cGMP hydrolysis by PDE peak B; format: biochemical, human; settings: for IC50: cGMP hydrolysis, 0.25 μM 3H-cGMP substrate; for Km: peak B
HT-29 cells = assay: Apoptosis and necrosis by morphology (acridine orange/ethidium bromide); format: cell-based; settings: for % Apoptosis / % Necrosis: HT-29 cells treated for 6 days
Protocol: In one type of apoptosis assay, suspected neoplastic cells are removed from a patient. The cells are then grown in culture in the presence or absence of a cGMP-specific PDE inhibitor. Apoptotic cells are measured by combining both the attached and “floating” compartments of the cultures. The protocol for treating tumor cell cultures with PDE inhibitors and related compounds to obtain a significant amount of apoptosis has been described in the literature. (See, Piazza, G. A., et al., Cancer Research, 55:3110-16, 1995, which is incorporated herein by reference). The novel features of this assay include collecting both floating and attached cells, identification of the optimal treatment times and dose range for observing apoptosis, and identification of optimal cell culture conditions.
Following treatment of neoplastic and normal cells with a test compound, cultures can be assayed for apoptosis and necrosis by fluorescent microscopy following labeling with acridine orange and ethidium bromide. The method for measuring apoptotic cell number has previously been described by Duke & Cohen, “Morphological And Biochemical Assays Of Apoptosis,” Current Protocols In Immunology, Coligan et al., eds. 3.17.1-3.17.16 (1992, which is incorporated herein by reference).
For example, floating and attached cells are collected, and aliquots of cells are centrifuged. The cell pellet is then resuspended in media and a dye mixture containing acridine orange and ethidium bromide. The mixture is then examined microscopically for morphological features of apoptosis.
Apoptotic and necrotic cell death was determined as previously described (Duke and Cohen, In: Current Protocols in Immunology, 3.17.1-3.17.16, New York, John Wiley and Sons, 1992). […] All data were collected from the same experiment.
The diagnostic method of this invention is used to determine whether a particular neoplasia is sensitive to treatment with a cGMP-specific PDE inhibitor. The apoptosis inducing activity for a series of phosphodiesterase inhibitors, specific for different PDEs, was determined. HT-29 cells were treated for 6 days with various inhibitors of phosphodiesterase. Apoptosis and necrosis were determined morphologically after acridine orange and ethidium bromide labeling in accordance with the assay described, supra.

[2] = biological target: T1, PDE peak A (PDE5) from SW-480 cells (Homo sapiens, UniProt O76074); assay: cGMP hydrolysis by PDE peak A; format: biochemical
T1 construct: SW-480 cells are collected and homogenized; The homogenate is centrifuged, and the supernatant is loaded onto a DEAE-Trisacryl M column; endogenous in cells; host or cells: SW-480 human colon carcinoma cells, DEAE-Trisacryl M fraction peak A

[3] = biological target: T2, GST-PDE5 binding domain fusion protein (Homo sapiens, UniProt O76074); assay: Cyclic GMP binding assay, 3H-cGMP saturation binding; settings: read-out: Km for cGMP; 3H-cGMP saturation binding curve at 25° C.
T2 construct: made in house; host or cells: E. coli BL21
Protocol: The assay was performed in a total volume of 100 μL containing 5 mM sodium phosphate buffer (pH 6.8), 1 mM EDTA and 0.25 mg/ml BSA and H^3-cGMP (5.8 Ci/mmol, NEN). The purified soluble GST-PDE5 binding domain fusion protein (5 to 50 μg/assay) was incubated at […] for one hour and then transferred to a Brandel MB-24 Cell Harvester with GF/B as the filter membrane. Next the fusion protein was washed twice with 10 mL of cold 5 mM potassium buffer, pH 6.8. The membranes were cut out and transferred to scintillation vials, then 1 ml of H2O and 6 ml of Ready Safe liquid scintillation cocktail as added and the samples were counted on a Beckman LS 6500 scintillation counter. A ^3H-cGMP saturation binding curve at 25° C. was generated.

PDE5 cGMP-binding sites = PDE5 cGMP-binding sites (Bos taurus, UniProt Q28156); settings: bovine PDE5; read-out: Kd of high affinity binding site; cited from earlier work
neoplastic cells = assay: Apoptosis induction and growth inhibition in neoplastic cells (words only); format: cell-based
[4] = test system: colonic polyps of familial polyposis patients; assay: Apoptosis clinical study, apoptotic labeling index (ALI) in biopsies; format: in vivo, human
Protocol: Increases in apoptosis are indicative that the neoplasia in question is sensitive to treatment with a cGMP-specific PDE inhibitor, such as sulindac sulfone (aposulind). A human in vivo aposulind-induced selective induction of apoptosis in colonic polyps is described below. Six familial polyposis patients per group were administered one of three doses of aposulind (200 mg, 400 mg which was later lowered to 200 mg for most patients in the group, or 300 mg) twice daily (BID).
Biopsies are taken from patients and used to investigate possible cellular mechanisms of apoptosis. Biopsy samples are placed in transfer media (500 ml RPMI1640 containing 50 ml fetal calf serum, 5×10^8 units penicillin G, and 5×10^6 μg streptomycin) and kept on ice for less than 1 hour until transfer to the pathology department. Upon receipt in the pathology department, samples are removed from the transfer media and oriented mucosa up, serosa down on filter paper, placed between biopsy sponges in a tissue cassette, and fixed in 10% neutral buffered formalin for 24 hours. Samples are then transferred to 70% ethanol and embedded in paraffin. Samples are oriented perpendicularly to the tissue cassette during final orientation in paraffin for longitudinal crypt exposure and easy visualization of mucosa and the relation to the basement membrane.
Four micron sections of tissue were cut, mounted, deparaffinized, rehydrated in graded alcohol, and treated with pepsin (5 mg/ml) to digest protein in the tissue. Sections were washed and treated with 2% hydrogen peroxide (H2O2) in PBS to quench endogenous peroxidase and washed again. Tissue samples were then circled with a PAP pen (Research Products Int., 800-323-9814) to produce a hydrophobic barrier to concentrate reagents on the sample. If a DNase positive control is desired, the sample is treated with DNase for 10 minutes, equilibrated in transferase buffer, and treated using 100 enzyme units/ml terminal transferase enzyme (TdT) at 37° C. for 60 minutes. Samples are washed and anti-digoxigenin-peroxidase is applied. Each sample is then covered with a coverslip and left in a humid box at room temperature for 30 minutes. After washing three times peroxidase is developed using DAB for nine minutes. After sufficient color development, the slides are washed and counterstained with hemotoxylin and eosin.
Apoptotic and nonapoptotic cells are counted on the basis of staining and morphology. An apoptotic labeling index (ALI) is calculated by dividing the total number of apoptotic cells counted by the total number of epithelial cells counted and expressing the quotient as a percentage.

## CCOC(=O)C1=C[C@]2(CC)CCCN3CCc4c(n1c1ccccc41)[C@@H]32 [Vinpocetine]
[1]
  Sensitivity of the new cGMP-PDE to inhibition (in words): relatively insensitive
  IC50: > 100 µM

## CC(C)Cn1c(=O)n(C)c(=O)c2[nH]cnc21 [IBMX]
HT-29 cells
  % Apoptosis: 4%
  % Necrosis: 13%

## Nc1nc2c(ncn2[C@@H]2O[C@@H]3COP(=O)(O)O[C@H]3[C@H]2O)c(=O)[nH]1 [cGMP]
[2]; read-out: Km of the enzyme for cGMP, peak A
  Km: 1070 nM
[1]; decreasing slope of Eadie-Hofstee plot, absence of cAMP, read-out: apparent Km
  Km: 8.4 µM
[1]; increasing slope of Eadie-Hofstee plot, called submicromolar affinity, read-out: Km
  Km: < 1 µM
[3]
  Km: 410 ± 80 nM
PDE5 cGMP-binding sites
  Kd: 500 nM

## Clc1cccc(Nc2nnc(-c3ccccc3)c3ccccc23)c1 [MY5445]
HT-29 cells
  % Apoptosis: 80%
  % Necrosis: 5%

## CCCc1nn(C)c2c(=O)[nH]c(-c3cc(S(=O)(=O)N4CCN(C)CC4)ccc3OCC)nc12 [Sildenafil]
[2]
  Inhibition of peak A activity (in words): inhibited activity of peak A
Neoplastic cells
  Apoptosis induction in neoplastic cells (in words): none of the three; also recorded: do not have significant apoptosis-inducing or growth-inhibiting properties
  Growth inhibition of neoplastic cells (in words): none of the three; also recorded: do not have significant apoptosis-inducing or growth-inhibiting properties

## CC1=C(CC(=O)O)c2cc(F)ccc2/C1=C\c1ccc(S(C)(=O)=O)cc1 [Exisulind, (Z)-5-fluoro-2-methyl-1-[[4-(methylsulfonyl)phenyl]methylene]indene-3-yl acetic acid]
HT-29 cells; HT-29 cells treated for six days
  Apoptotic and necrotic cell death (FIG. 1, in words): capable of causing apoptotic cell death without inducing neoplastic cell necrosis
[4]; 200 mg BID group
  Change in ALI after treatment: did not demonstrate any elevation
[4]; 200 mg BID, Month 1
  Mean Polyp ALI: 4.05%
[4]; 200 mg BID, Month 4
  Mean Polyp ALI: 4.52%
[4]; 200 mg BID, Month 6
  Mean Polyp ALI: 5.90%
[4]; 300 mg BID, Month 1
  Mean Polyp ALI: 4.90%
[4]; 300 mg BID, Month 6
  Mean Polyp ALI: 15.63%
[4]; 300 mg BID, six months
  Change in ALI of polyps after treatment: two fold increase
[4]; 400/200 mg BID group while uniformly dosed at 400 mg BID
  Change in ALI of dysplastic tissue after treatment: two-fold elevation
[4]; 400/200 mg BID, Month 1
  Mean Polyp ALI: 10.98%
[4]; 400/200 mg BID, Month 4
  Mean Polyp ALI: 5.51%
[4]; 400/200 mg BID, Month 6
  Mean Polyp ALI: 5.10%
[4]; familial polyposis patients
  Polyp size and number: diminution of polyp size and decrease in polyp number
[4]; normal mucosa, any treatment group, over time
  Change in normal mucosa ALI versus baseline ALI: no significant change
[4]; over six months of treatment
  Apoptosis levels in regressing polyps: doubled

## CCCOc1ccccc1-c1nc2nn[nH]c2c(=O)[nH]1 [Zaprinast]
[2]
  Mode of inhibition of cGMP hydrolysis, peak A: competitive inhibition
Neoplastic cells
  Apoptosis induction in neoplastic cells (in words): do not have significant apoptosis-inducing or growth-inhibiting properties
  Growth inhibition of neoplastic cells (in words): do not have significant apoptosis-inducing or growth-inhibiting properties
Neoplastic cells; listed as zaprinast
  Apoptosis induction in neoplastic cells (in words): none of the three
  Growth inhibition of neoplastic cells (in words): none of the three

## CC1(C)C(=O)Nc2ccc(C3=NNC(=O)CC3)cc21 [Indolidan]
[2]; cGMP hydrolysis
  Ratio (IC50 PeakA/Peak B): <0.31
[1]
  Sensitivity of the new cGMP-PDE to inhibition (in words): relatively insensitive
  IC50: > 100 µM

## COc1cc(/C=C2/C(C)=C(CC(=O)NCc3ccccc3)c3cc(F)ccc32)cc(OC)c1OC [Compound E, [(Z)-5-fluoro-2-methyl-1-(3,4,5-trimethoxybenzylidene)-3-indenylacetamide, N-benzyl]]
[2]
  Mode of inhibition of cGMP hydrolysis, peak A: competitively inhibit
[2]; cGMP hydrolysis
  Ratio (IC50 PeakA/Peak B): 1.0
[1]
  Mode of inhibition of cGMP hydrolysis, peak B: competitively inhibit
  IC50: 0.37 µM
Neoplastic cells
  Apoptosis induction in neoplastic cells (in words): induce apoptosis in neoplastic cells
  Growth inhibition of neoplastic cells (in words): precisely the opposite

## O=C([O-])C1CCN(c2nc(NCc3ccc4c(c3)OCO4)c3cc(Cl)ccc3n2)CC1.[Na+] [Compound E4021]
[1]
  Sensitivity of the new cGMP-PDE to inhibition (in words): relatively insensitive
Neoplastic cells
  Apoptosis induction in neoplastic cells (in words): none of the three; also recorded: do not have significant apoptosis-inducing or growth-inhibiting properties
  Growth inhibition of neoplastic cells (in words): none of the three; also recorded: do not have significant apoptosis-inducing or growth-inhibiting properties

## COc1nc2c([nH]1)c(=O)n(C)c(=O)n2CC(C)C [8-methoxy-IBMX]
HT-29 cells
  % Apoptosis: 2%
  % Necrosis: 1%

## CCCCCC[C@@H]([C@@H](C)O)n1cnc2c(N)ncnc21 (racemic) [EHNA]
[2]; cGMP hydrolysis, 0.25 μM 3H-cGMP substrate
  IC50: > 100 µM
[1]
  IC50: 3.7 µM

## COc1ccc(C2CNC(=O)C2)cc1OC1CCCC1 (stereo not drawn) [Rolipram]
[1]
  Sensitivity of the new cGMP-PDE to inhibition (in words): relatively insensitive
  IC50: > 100 µM

## CCCCOc1cc(CC2CNC(=O)N2)ccc1OC (stereo not drawn) [RO-20-1724]
HT-29 cells
  % Apoptosis: 11%
  % Necrosis: 2%
